Paper PMC5465257, “Evaluation of JNJ-54717793 a Novel Brain Penetrant Selective Orexin 1 Receptor Antagonist in Two Rat Models of Panic Attack Provocation” (Frontiers in Pharmacology, 2017)

Tests used:
[1] = system: Sprague-Dawley rats; test: Sodium lactate panic provocation model (1-allyglycine treated rats)
Description: Experiments were performed in male Sprague-Dawley rats (300–350 g, Harlan Laboratory, Indianapolis, IN, United States). Prior to and during surgeries, rats were anesthetized with a nose cone connected to an isoflurane system (MGX Research Machine; Vetamic, Rossville, IN, United States). Radiotelemetry probes [Cat. no. HD-S11, Data Sciences International, St. Paul, MN, United States] were surgically implanted into the peritoneal cavity and sutured to the muscle wall in order to assess general motor activity. A pressure transducer was implanted into the femoral artery to assess cardiovascular responses [i.e., mean arterial blood pressure (MAP) and heart rate (HR)]. Rats were also fitted with femoral venous catheters for 0.5 M i.v. sodium lactate (NaLac) infusions, as previously described ([Shekhar et al., 1996]). After 3–5 days of recovery, rats were anesthetized and 26 gauge T-shaped cannulae (Cat. no. 3260PG, Plastics One, Inc., Roanoake, VA, United States) were directed at cardio-excitatory Perifornical hypothalamic area regions [([Shekhar and Keim, 1997]) bregma: 1.2 mm posterior, +2.1 mm lateral, +9.1 mm ventral and adjusted for approaching at a 10° angle toward the midline with the stereotaxic incisor bar elevated 5 mm above the interaural line] and cemented into place. The 22 gauge side arm was then attached, via PE-60 tubing, to an osmotic minipump (prefilled with 1-allyglycine solution chronically infused at 3.5 nmol/0.5 μl per hour) and sutured into place subcutaneously at the nape of the neck (DURECT Corporation, Model no. 2002).
Five days following 1-allyglycine infusion onset, in a counterbalanced design and with 48 h between crossover, rats were orally dosed with either JNJ-54717793 at 3, 10, or 30 mg/kg, or vehicle as a control group 60 min prior to the 15 min 0.5 M sodium lactate challenge. […] The data reported are changes in mean arterial blood pressure, HR, and activity from the average of the baseline (t-5 to t-1) from each rat.
Baseline SI testing was done 7–8 days following radiotelemetry surgery recovery, and repeated again 2–3 days later during drug treatment crossover. On experimental drug testing days, the SI test was performed 5 min after the offset of the sodium lactate challenge with different partners each time. The SI box dimension were 0.9 m long × 0.9 m wide × 0.3 m height. […] All behavioral tests were digitally videorecorded with a camera above the box. The “experimental” rat and an unfamiliar “partner” rat were both allowed to individually habituate to the box for a 5 min period 24 h prior to each SI test. During the SI test, the two rats were placed together in the center of the box, and the total duration (sec) of non-aggressive physical contact (grooming, sniffing, crawling over and under, etc.) initiated by the “experimental” rat is quantified over a 5 min duration. A baseline SI test was performed at least 72 h after i.v. catheterization, but prior to osmotic minipump implantation. Another SI test was performed 5 days following minipump infusions and immediately following saline or sodium lactate infusions. Video recorded sessions were scored at a later time by Stephanie D Fitz, whom was blind to any drug treatment.
Each dependent variable for assessment of behavior and radiotelemetry data was respectively analyzed using a one way ANOVA, or a one way ANOVA with repeated measures with drug treatment as the main factor and time as repeated measures. In the presence of significant main effects post hoc tests were conducted using a parametric Fisher’s LSD test. Within subjects time effects were also assessed using a Dunnett’s one way analysis with the minute prior to the i.v infusion used as the control.

[2] = target: T1, rat OX1R (Rattus norvegicus, UniProt P56718); test: Rat OX1R competitive radioligand binding ([3H]SB-674042); set-up: expressed in transfected cells; host or cells: clonal HEK-293 cells
T1 sequence (P56718 1-416): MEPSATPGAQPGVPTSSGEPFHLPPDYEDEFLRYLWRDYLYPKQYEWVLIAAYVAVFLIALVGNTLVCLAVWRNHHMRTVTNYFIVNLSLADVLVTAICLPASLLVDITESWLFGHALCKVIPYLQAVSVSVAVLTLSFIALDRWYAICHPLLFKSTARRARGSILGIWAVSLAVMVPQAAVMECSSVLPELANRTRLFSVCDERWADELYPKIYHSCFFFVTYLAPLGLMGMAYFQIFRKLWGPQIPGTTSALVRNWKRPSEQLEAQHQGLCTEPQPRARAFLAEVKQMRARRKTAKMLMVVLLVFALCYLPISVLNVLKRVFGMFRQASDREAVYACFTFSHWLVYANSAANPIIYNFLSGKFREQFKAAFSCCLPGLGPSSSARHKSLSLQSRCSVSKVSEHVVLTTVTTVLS
Description: Human or rat OX1R binding was measured in competitive radioligand binding assays using [^3H]SB-674042 (1-(5-(2-fluoro-phenyl)-2-methyl-thiazol-4-yl)-1-((S)-2-(5-phenyl-(1,3,4)oxadiazol-2-ylmethyl)-pyrrolidin-l-yl)-methanone) as a tracer (4 nM, specific activity 35 Ci/mmol) as previously described ([Langmead et al., 2004]). Cell membranes were prepared from clonal CHO K1 cells transfected with the human OX1R or clonal HEK-293 cells transfected with the rat OX1R. Dilutions of test compounds were made in Dulbecco’s PBS from 10 mM stocks dissolved in dimethyl sulfoxide. After a 60 min incubation at room temperature, binding reactions were filtered. The membranes were counted in a scintillation counter. Non-specific binding was determined in the presence of 10 μM almorexant. Affinities of compounds for the human OX2R were measured by competitive radioligand binding using tritiated N-ethyl-2-[(6-methoxy-pyridin-3-yl)-(toluene-2-sulfonyl)-amino]-N-pyridin-3-ylmethyl-acetamide (EMPA) (2 nM, specific activity 27 Ci/mmol) ([Malherbe et al., 2009]). Cell membranes were prepared from a stable pool of HEK-293 cells transfected with the human OX2R. Non-specific binding was determined with 10 μM almorexant.
The Ki of the test compounds was calculated based on non-linear regression (one site competition) using Graphpad Prism. […]

[3] = rats, after sodium lactate challenge

O=C(c1cccc(F)c1-c1ncccn1)N1[C@@H]2CC[C@H]1[C@H](Nc1cnc(C(F)(F)F)cn1)C2 [JNJ-54717793, (1S,2R,4R)-7-([(3-fluoro-2-pyrimidin-2-ylphenyl)carbonyl]-N-[5-(trifluoromethyl)pyrazin-2-yl]-7-azabicyclo[2.2.1]heptan-2-amine)]
sodium lactate-induced pressor response (MAP) ([1]; rats, 10 mg/kg p.o., t3 timepoint, no overall treatment effect): attenuation of pressor response | sodium lactate-induced tachycardia (HR) ([1]; rats, 3, 10, 30 mg/kg p.o., compared to vehicle): did not attenuate | locomotion ([1]; rats, 3, 10, 30 mg/kg p.o., sodium lactate did not increase locomotion): did not significantly alter | center or middle times in the open field test [1, 3]: Nor was there an effect | sedative effects (line crossings) in the open field test [1, 3]: no apparent sedative effects | sodium lactate-induced anxiety behavior in the SI test ([1]; rats, highest dose (30 mg/kg p.o.)): attenuate/block | Ki [2]: 14.5 nM
